Several values for one entry are separate records, joined by “and”; a condition that tells them apart may be missing. Identical values can stand only once.
Columns and labels:
L6-GLUT4myc myotubes [1] = experiment: Fluorescence immunostaining of cell surface GLUT4 and actin fibers in L6-GLUT4myc myotubes; assay type: cell-based, rat; details: 30 μM DS20060511 or 100 nM insulin; Fig. 4c
Description: Arrowheads indicate the characteristic ruffled structure of the polymerized actin and actin-associated surface GLUT4. d GLUT4 translocation activity of 30 μM DS20060511 or 100 nM insulin in the presence of the actin polymerization inhibitor, Latrunculin B, at the indicated concentrations. Values shown are means ± SEM, n = 3. **P < 0.01 vs. 0 nM Latrunculin B by one-way ANOVA followed by Dunnett’s test. e Concentration-dependent insulin-stimulated GLUT4 translocation in L6-GLUT4myc myotubes with or without 30 μM DS20060511 (n = 3). f Concentration-dependent DS20060511-stimulated 2-DG uptake with 100 nM insulin in isolated muscles from C57BL/6 mice (n = 3). Values shown are means ± SEM. ***P < 0.001 by one-way ANOVA followed by Tukey’s test. g Blood glucose levels during ITT in STZ-treated C57BL/6 mice (n = 6–7). Vehicle or indicated dose of DS20060511 was given orally at the same time as 0.1 U kg^−1 insulin injection intraperitoneally. Values shown are means ± SEM. *P < 0.05 vs. vehicle by one-way ANOVA followed by Dunnett’s test. c Scale bar in all panels, 5 μm. Uncropped blots for a and b can be found in Supplementary Fig. 6.
Differentiated L6-GLUT4myc myotubes were prepared in a collagen-coated four-well chamber slide. After serum starvation for 3 h, the cells were stimulated with insulin or DS20060511 for 15 min at 37 °C. Cells were rinsed with cold PBS(+), fixed with 4% paraformaldehyde for 30 min on ice and blocked with 1% BSA and 10% normal goat serum in PBS(+) for 30 min at room temperature. Surface GLUT4myc staining was carried out without cell membrane permeabilization. Cells were incubated with anti-c-Myc antibody for 30 min at room temperature, followed by treatment with 0.1% Triton-X. After blocking, the cells were incubated with Alexa 488-conjugated secondary antibody and Alexa 594-conjugated phalloidin for 30 min at room temperature. Fluorescence images were obtained with a Leica TSC-SP8 confocal microscope. Specimens were scanned along the z-axis and a single-composite image was generated by the maximal projection method using the LAS software (Leica Microsystems, Wetzlar, Germany).

[2] = tested on: 3T3-L1-GLUT4myc adipocytes; experiment: In vitro cellular 2-DG uptake in 3T3-L1-GLUT4myc adipocytes; assay type: cell-based; details: for Ratio: 2-DG uptake normalized to vehicle; for A - background / A: dpm: 2-DG uptake
Description: (§1) The L6-GLUT4myc rat myoblast cell line was obtained from Dr. Amira Klip and Dr. Philip Bilan, through a license granted by The Hospital for Sick Children, 555 University Avenue, Toronto, Ontario, Canada M5G 1 × 8; or purchased from Kerafast, Boston, MA (ESK202)[43]. The 3T3-L1-GLUT4myc fibroblast cell line was provided by Dr. Tomoyuki Yuasa, Tokushima University[44]. L6-GLUT4myc myoblasts were grown in MEMα (32571036, Thermo Fisher Scientific, Waltham, MA) supplemented with 10% FBS and 1% antibiotics, and then induced to differentiate into myotubes in MEMα supplemented with 2% FBS and 1% antibiotics for 5–8 days. 3T3-L1-GLUT4myc fibroblasts were induced to differentiate into adipocytes as described previously,[45] with minor modifications. Briefly, cells were grown to confluence in growth medium: DMEM (10569010, Thermo Fisher Scientific) supplemented with 10% FBS and 1% antibiotics, and then induced to differentiate into adipocytes in growth medium supplemented with 1 μM dexamethasone, 2 μM rosiglitazone, 0.5 mM isobutylmethylxanthine, and 10 μg mL^−1 insulin for 2 days. The adipocytes were then cultured in growth medium supplemented with 10 μg mL^−1 insulin for a few days before being used for the experiments.
L6-GLUT4myc myotubes and 3T3-L1-GLUT4myc adipocytes were incubated in the wells of a 24-well plate containing serum-free medium for 3 h at 37 °C and then incubated in glucose-free medium for 30 min at 37 °C. The cells were treated with the indicated concentrations of DS20060511 or insulin for 30 min at 37 °C, followed by the addition of 1 mM 2-deoxy-D-glucose (2-DG) and 0.3 μCi mL^−1 [^3H]-2-DG for 10 min. 2-DG uptake was measured with a liquid scintillation counter (Tri-Carb 2810TR, PerkinElmer, Waltham, MA) and normalized to the level in the vehicle-treated group.

L6-GLUT4myc myotubes [3] = experiment: GLUT4 translocation: cell surface GLUT4myc by anti-Myc antibody assay in L6-GLUT4myc myotubes; assay type: cell-based, rat; parameters: key to GLUT4 translocation: fold of vehicle-treated group; details: for Ratio: GLUT4 translocation normalized to vehicle; for A - background / A: Abs. (450 nm): GLUT4 translocation
Description: as §1
Cell surface GLUT4 levels in the L6-GLUT4myc myoblasts and myotubes were determined by antibody binding assay as described previously[43],[44], with minor modifications. Briefly, cells in a 96- or 24-well plate were starved in serum-free MEMα (0.1% BSA and 1% antibiotics) for 3 h and then treated with the indicated concentrations of DS20060511 and/or insulin for 30 min at 37 °C. After fixation with 4% paraformaldehyde, the cells were incubated with 1% glycine in PBS at 4 °C for 10 min, and blocked with 10% normal goat serum and 3% BSA in PBS at 4 °C for 30 min. The cells were then incubated with anti-c-Myc antibody (sc-40, 1:500) diluted with blocking buffer at 4 °C for 1 h, washed with cold PBS(+), incubated with HRP-conjugated anti-mouse IgG diluted with blocking buffer at 4 °C for 30 min, and then washed again. SuperSignal ELISA Pico Chemiluminescent Substrate (Thermo Fisher Scientific) was added and the luminescent signal was measured. To investigate GLUT4 translocation in the 3T3-L1-GLUT4myc adipocytes, the cells were prepared in a 24-well plate, and anti-c-Myc antibody (sc-789, 1:1000), HRP-conjugated anti-rabbit IgG and SIGMAFAST OPD regent (Sigma–Aldrich) were added for optical detection of the cell surface GLUT4myc levels. The GLUT4 translocation activity was normalized to that in the vehicle-treated group.

Insulin: Insulin (Humulin, Eli Lilly) in the in vivo experiments; Insulin solution human (I9278, Sigma–Aldrich) in the in vitro experiments
actin polymerization (L6-GLUT4myc myotubes [1]): observed only following insulin treatment | staining of GLUT4 at the cell surface (L6-GLUT4myc myotubes [1]): strong staining of GLUT4 at the cell surface | Ratio ([2]; Insulin 1 nM): 12.31 and 11.72 and 12.41 | Ratio ([2]; Insulin 10 nM): 13.43 and 13.26 and 13.52 | Ratio ([2]; Insulin 100 nM): 12.21 and 13.79 and 13.94 | A - background ([2]; Insulin 1 nM): 9081 dpm and 9610 dpm and 9537 dpm | A: dpm ([2]; Insulin 1 nM): 9577 dpm and 10106 dpm and 10033 dpm | A - background ([2]; Insulin 10 nM): 10270 dpm and 10470 dpm and 10402 dpm | A: dpm ([2]; Insulin 10 nM): 10766 dpm and 10966 dpm and 10898 dpm | A - background ([2]; Insulin 100 nM): 10682 dpm and 10795 dpm and 9457 dpm | A: dpm ([2]; Insulin 100 nM): 11178 dpm and 11291 dpm and 9953 dpm | 2-DG uptake (in words) ([2]; differentiated 3T3-L1-GLUT4myc adipocytes, Fig. 1e): increase 2-DG uptake | Ratio (L6-GLUT4myc myotubes [3]; Insulin 1 nM): 1.41 and 1.40 and 1.33 | Ratio (L6-GLUT4myc myotubes [3]; Insulin 10 nM): 1.91 and 1.96 and 1.84 | Ratio (L6-GLUT4myc myotubes [3]; Insulin 100 nM): 2.47 and 2.48 and 2.46 | A - background (L6-GLUT4myc myotubes [3]; Insulin 1 nM): 0.111 and 0.106 and 0.112 | A: Abs. (450 nm) (L6-GLUT4myc myotubes [3]; Insulin 1 nM): 0.201 and 0.196 and 0.202 | A - background (L6-GLUT4myc myotubes [3]; Insulin 10 nM): 0.156 and 0.146 and 0.152 | A: Abs. (450 nm) (L6-GLUT4myc myotubes [3]; Insulin 10 nM): 0.246 and 0.236 and 0.242 | A - background (L6-GLUT4myc myotubes [3]; Insulin 100 nM): 0.196 and 0.194 and 0.195 | GLUT4 translocation (L6-GLUT4myc myotubes [3]; Insulin 100 nM, Latrunculin B 0 nM, normalized to vehicle): 3.11 and 3.04 and 3.07 | GLUT4 translocation (L6-GLUT4myc myotubes [3]; Insulin 100 nM, Latrunculin B 10 nM): 3.38 and 3.09 and 3.08 | GLUT4 translocation (L6-GLUT4myc myotubes [3]; Insulin 100 nM, Latrunculin B 30 nM): 2.53 and 2.30 and 2.42 | GLUT4 translocation (L6-GLUT4myc myotubes [3]; Insulin 100 nM, Latrunculin B 100 nM): 2.62 and 2.09 and 2.39 | GLUT4 translocation (L6-GLUT4myc myotubes [3]; Insulin 100 nM, Latrunculin B 200 nM): 2.01 and 1.93

COc1ccc2c(C)c(C(=O)O)ccc2c1C1C2=C(CC(C)(C)CC2=O)OC2=C1C(=O)CC(C)(C)C2 [DS20060511]
actin polymerization (L6-GLUT4myc myotubes [1]): observed only following insulin treatment | staining of GLUT4 at the cell surface (L6-GLUT4myc myotubes [1]): strong staining of GLUT4 at the cell surface | Ratio ([2]; DS20060511 0.1 μM): 1.50 and 1.09 and 1.18 | Ratio ([2]; DS20060511 1 μM): 1.43 and 1.24 and 1.47 | Ratio ([2]; DS20060511 10 μM): 1.53 and 1.62 and 1.75 | A - background ([2]; DS20060511 0.1 μM): 846 dpm and 912 dpm and 1164 dpm | A: dpm ([2]; DS20060511 0.1 μM): 1342 dpm and 1408 dpm and 1660 dpm | A - background ([2]; DS20060511 1 μM): 957 dpm and 1138 dpm and 1108 dpm | A: dpm ([2]; DS20060511 1 μM): 1453 dpm and 1634 dpm and 1604 dpm | A - background ([2]; DS20060511 10 μM): 1255 dpm and 1357 dpm and 1185 dpm | A: dpm ([2]; DS20060511 10 μM): 1751 dpm and 1853 dpm and 1681 dpm | GLUT4 translocation on co-treatment with insulin (L6-GLUT4myc myotubes [3]; 30 μM DS20060511 plus insulin, also at saturating insulin concentration, Fig. 4e): additive increase of GLUT4 translocation | GLUT4 translocation (L6-GLUT4myc myotubes [3]; DS20060511 30 μM, Latrunculin B 0 nM, normalized to vehicle): 1.94 and 1.98 and 1.81 | GLUT4 translocation (L6-GLUT4myc myotubes [3]; DS20060511 30 μM, Latrunculin B 10 nM): 2.29 and 2.23 and 2.10 | GLUT4 translocation (L6-GLUT4myc myotubes [3]; DS20060511 30 μM, Latrunculin B 30 nM): 1.81 and 2.08 and 1.91 | GLUT4 translocation (L6-GLUT4myc myotubes [3]; DS20060511 30 μM, Latrunculin B 100 nM): 2.37 and 2.30 and 2.39 | GLUT4 translocation (L6-GLUT4myc myotubes [3]; DS20060511 30 μM, Latrunculin B 200 nM): 2.39 and 2.15 and 2.06 | Ratio (L6-GLUT4myc myotubes [3]; DS20060511 0.1 μM): 1.26 and 1.33 | Ratio (L6-GLUT4myc myotubes [3]; DS20060511 1 μM): 1.71 and 1.72 and 1.90 | Ratio (L6-GLUT4myc myotubes [3]; DS20060511 10 μM): 2.15 and 2.14 and 2.27 | A - background (L6-GLUT4myc myotubes [3]; DS20060511 0.1 μM): 0.100 and 0.106 | A - background (L6-GLUT4myc myotubes [3]; DS20060511 1 μM): 0.137 and 0.151 and 0.136 | A: Abs. (450 nm) (L6-GLUT4myc myotubes [3]; DS20060511 1 μM): 0.227 and 0.241 and 0.226 | A - background (L6-GLUT4myc myotubes [3]; DS20060511 10 μM): 0.170 and 0.180 and 0.171 | A: Abs. (450 nm) (L6-GLUT4myc myotubes [3]; DS20060511 10 μM): 0.260 and 0.270 and 0.261 | GLUT4 translocation (in words) (L6-GLUT4myc myotubes [3]; differentiated L6-GLUT4myc myotubes, Fig. 1b): increased GLUT4 translocation in differentiated L6-GLUT4myc myotubes in a concentration-dependent manner

Source: PMC8379256, “A xanthene derivative, DS20060511, attenuates glucose intolerance by inducing skeletal muscle-specific GLUT4 translocation in mice” (Communications Biology, 2021)
